# The supplement of paper PMC10307832
# Legend:
# Experiment in all cases: relative viability (nuclei count vs DMSO), 5 days (fraction); higher = more cells survive
# Pazopanib + Crizotinib = compound: Cc1ccc(Nc2nccc(N(C)c3ccc4c(C)n(C)nc4c3)n2)cc1S(N)(=O)=O [Pazopanib] + C[C@@H](Oc1cc(-c2cnn(C3CCNCC3)c2)cnc1N)c1c(Cl)ccc(F)c1Cl [Crizotinib] (partner 1 µM)
# In short: (§1)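 Dosing by pin tool came one day after lung cancer cell lines were seeded in 1536-well plates, using either one drug or a fixed anchor-drug dose plus five library-drug doses (not always all listed) in √10 steps. After 5 days, nuclei were counted on 4× images. Relative viability is treated-well nuclei count divided by vehicle-well nuclei count, and values are medians of duplicate plates.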
# Pazopanib + OSI-027 = compound: Cc1ccc(Nc2nccc(N(C)c3ccc4c(C)n(C)nc4c3)n2)cc1S(N)(=O)=O [Pazopanib] + COc1cccc2cc(-c3nc([C@H]4CC[C@H](C(=O)O)CC4)n4ncnc(N)c34)[nH]c12 [OSI-027] (partner 0.5 µM)
# In short: as §1
# Ponatinib + Olaparib = compound: Cc1ccc(C(=O)Nc2ccc(CN3CCN(C)CC3)c(C(F)(F)F)c2)cc1C#Cc1cnc2cccnn12 [Ponatinib] + O=C(c1cc(Cc2n[nH]c(=O)c3ccccc23)ccc1F)N1CCN(C(=O)C2CC2)CC1 [Olaparib] (partner 8 µM)
# In short: as §1
# Pazopanib + Trametinib = compound: Cc1ccc(Nc2nccc(N(C)c3ccc4c(C)n(C)nc4c3)n2)cc1S(N)(=O)=O [Pazopanib] + CC(=O)Nc1cccc(-n2c(=O)n(C3CC3)c(=O)c3c(Nc4ccc(I)cc4F)n(C)c(=O)c(C)c32)c1 [Trametinib] (partner 0.02 µM)
# In short: as §1
Cell Line,relative viability (Pazopanib + Crizotinib; first compound 0.01 µM),relative viability (Pazopanib + Crizotinib; first compound 0.03162 µM),relative viability (Pazopanib + Crizotinib; first compound 0.1 µM),relative viability (Pazopanib + Crizotinib; first compound 0.3162 µM),relative viability (Pazopanib + Crizotinib; first compound 1 µM),relative viability (Pazopanib + OSI-027; first compound 0.01 µM),relative viability (Pazopanib + OSI-027; first compound 0.03162 µM),relative viability (Pazopanib + OSI-027; first compound 0.1 µM),relative viability (Pazopanib + OSI-027; first compound 0.3162 µM),relative viability (Pazopanib + OSI-027; first compound 1 µM),relative viability (Ponatinib + Olaparib; first compound 0.002 µM),relative viability (Ponatinib + Olaparib; first compound 0.006325 µM),relative viability (Ponatinib + Olaparib; first compound 0.06325 µM),relative viability (Ponatinib + Olaparib; first compound 0.2 µM),relative viability (Pazopanib + Trametinib; first compound 0.01 µM),relative viability (Pazopanib + Trametinib; first compound 0.03162 µM),relative viability (Pazopanib + Trametinib; first compound 0.1 µM),relative viability (Pazopanib + Trametinib; first compound 0.3162 µM),relative viability (Pazopanib + Trametinib; first compound 1 µM)
HARA,1.1,1.04,1.22,1.05,1.1,0.581,0.583,0.504,0.642,0.6,0.757,0.825,0.777,0.874,0.829,0.94,0.604,0.755,0.725
NCI-H647,1,1.22,1.26,1.01,1.06,0.594,0.688,0.723,0.902,0.739,0.521,0.527,0.615,0.522,0.377,0.48,0.487,0.609,0.439
NCI-H23,0.594,0.474,0.577,0.735,0.591,0.559,0.617,0.648,0.643,0.637,0.327,0.343,0.466,0.328,0.342,0.438,0.364,0.515,0.55
LCLC-97TM1,,0.309,0.277,0.297,0.427,0.5,0.601,0.523,0.528,0.513,0.48,0.452,0.385,0.334,,0.218,0.203,0.209,0.279
EPLC-272H,0.771,1.11,1.07,0.885,1.03,,0.253,0.337,0.336,0.277,0.777,0.9,0.778,0.624,,0.278,0.281,0.251,0.285
NCI-H1915,0.875,0.974,0.911,0.847,0.79,0.61,0.659,0.626,0.588,0.64,0.254,0.275,0.278,0.234,0.294,0.312,0.355,0.336,0.347
NCI-H3122,0.263,0.247,0.273,0.278,0.348,0.985,0.958,1.02,1.05,1.26,0.507,0.634,0.564,0.592,0.248,0.256,0.219,0.25,0.251
NCI-H441,0.686,0.704,0.639,0.625,0.596,0.6,0.597,0.649,0.619,0.454,0.437,0.477,0.578,0.438,0.5,0.445,0.474,0.563,0.734
NCI-H358,0.722,0.688,0.518,0.622,0.478,0.843,0.999,0.828,,1.03,0.565,0.609,0.648,0.49,0.145,0.134,0.124,0.167,0.141
SK-MES-1,0.93,1,1.01,1.01,0.98,0.643,0.629,0.654,0.585,0.578,0.765,0.819,0.857,0.769,0.537,0.555,0.621,0.725,0.628
PC-14,0.95,0.893,0.968,0.891,0.935,0.871,0.937,1.06,0.849,1.01,0.334,0.359,0.347,0.284,0.834,0.775,0.896,1.09,0.766
CAL-12T,0.685,0.676,0.726,0.6,0.675,0.473,0.943,0.609,0.591,0.684,0.735,0.663,0.822,0.683,0.32,0.437,0.331,0.437,0.446
